# Entries after “also recorded” stand apart in the source; their conditions may differ. Where two headings read alike, the source gives them in different places.
# How the values were obtained:
# [1] = test system: Staphylococcus aureus ATCC 25923; assay: MIC, microdilution method; assay type: cell-based; conditions: S. aureus ATCC 25923, MHB, 18 h, 37 °C, tested 512 to 1 µg/mL
# Experimental: (§1) Non-pathogenic reference strains representing the intestinal microbiome were used for the studies: Escherichia coli K12, Staphylococcus aureus ATCC 25923 and Enterococcus faecalis ATCC 29212. All strains were obtained from the collection of the Department of Microbiology at the Medical University of Wrocław.
# (§2) The strains were received from the museum (−80 °C) and grown in tryptic soy broth (TSB, OXOID, Basingstoke, UK) under continuous shaking conditions (MaxQTM6000 incubator shaker, Thermo Scientific, Waltham, MA, USA) at 125 rpm at 37 °C. Then, they were moved to the growth media, namely tryptic soy agar (TSA, OXOID, Basingstoke, UK) and MacConkey agar (MC, Millipore, Darmstadt, Germany) for S. aureus or E. faecalis and E. coli, respectively.
# (§3) A fresh 18–24 h culture was used for each study. For this purpose, a culture with a density of 1.5 × 10^8 CFU/mL in Mueller–Hinton broth (MHB, OXOID, Basingstoke, UK) was prepared and used for further microdilution studies.
# (§4) The antimicrobial activity of the O-alkyl derivatives of naringenin and their oximes was tested in vitro using the microdilution method, showing the minimum inhibitory concentration (MIC), in accordance with the recommendations of the European Antimicrobial Susceptibility Testing Committee EUCAST [44]. MICs were determined in 96-well microdilution plates. The tests were carried out in MHB medium. The O-alkyl derivatives of naringenin and their oximes were tested in the concentration range of 512 to 1 µg/mL in a geometric process in MHB medium. The final concentration of the test strains in each test well was 5 × 10^5 CFU/mL. MICs were read after 18 h (for E. coli and S. aureus) and 24 h (for E. faecalis) incubation at 37 °C.
# (§5) A strain growth control (tested strain in medium), background control for tested compounds (naringenin derivatives in MHB), medium control (only pure MHB) and compound solvent control (DMSO at test compound concentration, strain and MHB) were set for each experiment. Each test was set up with three independent experiments, each as three separate replicates.
# (§6) The […], OD600, was measured in a plate reader (ASYS UVM340, BIOCHROM Ltd., Cambridge, UK). The background control of the tested compounds and the clean medium were included in the absorbance results.
# Escherichia coli K12 [2] = assay: MIC, microdilution method; assay type: cell-based; conditions: E. coli K12, MHB, 18 h, 37 °C, tested 512 to 1 µg/mL
# Experimental: as §1, §2, §3, §4, §5, §6
# [3] = test system: Enterococcus faecalis ATCC 29212; assay: MIC, microdilution method; assay type: cell-based; conditions: E. faecalis ATCC 29212, MHB, 24 h, 37 °C, tested 512 to 1 µg/mL
# Experimental: as §1, §2, §3, §4, §5, §6
# SRB assay, cytotoxicity [4] = assay type: cell-based, human; conditions: human, HT-29 cells; HT-29, SRB, 24 h exposure, three independent repeats; read-out: Cytotoxicity (IC50 ± SD)
# Experimental: (§7) The HT-29 cells (ATCC, Manassas, VA, USA) were cultured within α-MEM (IIET PAS, Wrocław, Poland) supplemented with 10% fetal bovine serum (Sigma, St. Louis, MO, USA), antimycotic (100 μg/mL penicillin, 100 μg/mL streptomycin and 0.25 μg/mL amphotericin) (Sigma) and 2 mM glutamine (Sigma). The 3T3-L1 cells (ATCC, Manassas, VA, USA) were cultivated using DMEM high-glucose medium (IIET PAS, Wrocław, Poland) supplemented as above. Both cell lines were cultured at 37 °C in an atmosphere of 5% CO2.
# (§8) The sulforhodamine B (SRB) assay was performed according to a previously published protocol. Briefly, 1 × 10^4 HT-29 or 5 × 10^3 3T3-L1 cells were seeded into 96-well plates. After attaching to the plate surface, the cells were incubated with 100, 75, 50, 25, 10 or 1 µg/mL of the investigated compounds for 24 h. After this time, proteins were precipitated with trichloroacetic acid and stained with SRB. The absorbance was measured at 560 nm using a GloMax Discover Microplate Reader (Promega, Madison, WI, USA).
# [5] = test system: caspase 3/7 in HT-29 cells; assay: Caspase-Glo 3/7 Assay; assay type: cell-based, human; conditions: HT-29, 50 µg/mL; for caspase 3/7 activation: measured at 6, 12, 24 and 48 h
# Experimental: The activity of two effector caspases 3 and 7 was analyzed using the Caspase-Glo 3/7 Assay (Promega) according to the recommendations of the manufacturer. The cells were seeded at a density of 1 × 10^4 per well for the test on a 96-well plate. Then, cells were incubated with A2, B2, A9, B9 and NG at a concentration of 50 µg/mL for 48 h. Half an hour before each measurement of caspase activity, an equal volume of Caspase-Glo 3/7 substrate solution was added to cells. The luminescence signals were detected using a GloMax Discover Microplate Reader at the 6th, 12th, 24th and 48th hours of the experiment. The reactions for each sample were repeated in triplicate and presented as the mean value.
# SRB assay, cytotoxicity [6] = assay type: cell-based, mouse; conditions: mouse, 3T3-L1 cells; 3T3-L1, SRB, 24 h exposure, three independent repeats; read-out: Cytotoxicity (IC50 ± SD)
# Experimental: as §7, §8
# HT-29 cells [7] = assay: RealTime-Glo Annexin V Apoptosis and Necrosis Assay; assay type: cell-based, human; conditions: for annexin V luminescence and necrosis fluorescence signals versus untreated cells: HT-29, during 12 h incubation, applied concentrations 10-100 µg/mL
# Experimental: The process of apoptosis was determined using the RealTime-Glo Annexin V Apoptosis and Necrosis Assay (Promega) according to the manufacturer’s protocol. Briefly, 1 × 10^4 HT-29 cells were seeded into a single well of a 96-well plate. After overnight incubation, the cells were treated with 10, 25, 50 and 100 µg/mL of the investigated compounds and detection reagent for 24 h. As a negative control, untreated cells were used. The luminescence, fluorescence and OD525 signals were detected at each hour of the first 12 h of incubation. The end measurement was performed at the 24th hour of the experiment. All samples were prepared in triplicate, and then their means were calculated.
# HT-29 cells [8] = assay: MTT assay, cell viability; assay type: cell-based, human; conditions: 24 h; for effect on colon adenocarcinoma cells (viability, MTT): HT-29, highest concentration 100 µg/mL; for reduction in cell viability: HT-29, MTT
# Experimental: as §7
# First, 1 × 10^4 HT-29 cells or 5 × 10^3 3T3-L1 cells were seeded into a 96-well plate and incubated for one night. Then, cells were treated with different concentrations of the investigated compounds within 24 h. Afterwards, the medium was replaced with a fresh medium containing 0.5 mg/mL of 3-(4,5-dimethylthiazol-2-yl)-2,5-diphenyl-2H-tetrazolium bromide (MTT, Sigma) and incubated for 2 h at 37 °C. After removing the medium, the formazan salts were dissolved in dimethyl sulfoxide (DMSO, Sigma), and the absorbance of the solution was measured at 560 nm using a plate reader.
# [9] = test system: Staphylococcus aureus ATCC 25923; assay: MBC assay; assay type: cell-based; conditions: S. aureus ATCC 25923
# Experimental: (§9) The minimum bactericidal concentration (MBC) was tested for all naringenin derivatives. First, 10 µL of medium was taken from the plate, on which the MIC was determined for the MIC value, the value below and the two values above. This volume was transferred to TSA or MC agar. After 18–24 h (depending on strain) incubation at 37 °C, colonies were counted. The concentration of test compounds at which no bacterial growth was observed was defined as the MBC value. Each experiment was repeated 3 times.
# Escherichia coli K12 [10] = assay: MBC assay; assay type: cell-based; conditions: E. coli K12
# Experimental: as §9
# [11] = test system: Enterococcus faecalis ATCC 29212; assay: MBC assay; assay type: cell-based; conditions: E. faecalis ATCC 29212
# Experimental: as §9
# HT-29 cells [12] = assay: SRB assay, cytotoxicity; assay type: cell-based, human; conditions: HT-29, SRB, 24 h exposure, three independent repeats
# Experimental: as §7, §8
# 3T3-L1 cells = assay: SRB assay, cytotoxicity; assay type: cell-based, mouse; conditions: 3T3-L1, SRB, 24 h exposure, three independent repeats
# Experimental: as §7, §8
# HT-29 cells [13] = test system: HT-29 cells; set-up: method as in earlier work; conditions: ref 29 (Kocyigit et al.); cited from earlier work
# [14] = Staphylococcus aureus, ATCC25923, read-out: MIC
# [15] = Escherichia coli, read-out: MIC
# [16] = Enterococcus faecalis, ATCC29212, read-out: MIC
# [17] = Staphylococcus aureus, ATCC25923, read-out: MBC
# [18] = Escherichia coli, read-out: MBC
# [19] = Enterococcus faecalis, ATCC29212, read-out: MBC
SMILES,melting point,MIC [1],"MIC [1, 14]",MIC (Escherichia coli K12 [2]; [15]),MIC [3],"MIC [3, 16]","IC50 at 24 h (SRB assay, cytotoxicity [4])",caspase 3/7 activation [5],"IC50 at 24 h (SRB assay, cytotoxicity [6])",annexin V luminescence and necrosis fluorescence signals versus untreated cells (HT-29 cells [7]),"effect on colon adenocarcinoma cells (viability, MTT) (HT-29 cells [8])","MBC [9, 17]",MBC (Escherichia coli K12 [10]; [18]),"MBC [11, 19]",MIC (Escherichia coli K12 [2]),MBC (Escherichia coli K12 [10]),other results
"CCCCCCCCCCCOc1cc(O)c2c(c1)O[C@H](c1ccc(O)cc1)CC2=O [A9, 7-O-Undecylnaringenin]",103 to 104 °C,>512 (>512) µg/mL,> 512 µg/mL,> 512 µg/mL,512 (>512) µg/mL,512 µg/mL,17.9 ± 0.65 µg/mL,significant caspase 3/7 activation was also detected,10.2 ± 0.2 µg/mL,both signals were similar to those for untreated cells,completely inhibited,> 512 µg/mL,> 512 µg/mL,> 512 µg/mL,–,–,–
"O/N=C1\CC(c2ccc(O)cc2)Oc2cc(O)cc(O)c21 (centres unmarked) [NGOX, naringenin oxime, reference compound]",–,> 512 µg/mL,–,–,512 µg/mL,–,–,–,–,both signals were similar to those for untreated cells,–,–,–,–,512 µg/mL,> 512 µg/mL,Cytotoxicity (IC50 ± SD) (HT-29 cells [12]): >100 µg/mL; Cytotoxicity (IC50 ± SD) (3T3-L1 cells): 29.18 ± 2.00 µg/mL; reduction in cell viability (HT-29 cells [8]; 100 µg/mL): more than 50%; IC50 (HT-29 cells [13]): 175 µg/mL; MBC [9]: > 512 µg/mL; MBC [11]: > 512 µg/mL
"CCCCCCCCCCCOc1cc(O)c2c(c1)O[C@H](c1ccc(O)cc1)CC2=NO [B9, 7-O-Undecylnaringenin oxime]",171 to 173 °C,>512 (>512) µg/mL,> 512 µg/mL,> 512 µg/mL,–,256 µg/mL,11.4 ± 1.17 µg/mL,rapid activation of caspase 3/7,6.74 ± 0.84 µg/mL,–,–,> 512 µg/mL,> 512 µg/mL,> 512 µg/mL,–,–,"time of caspase 3/7 activation [5]: ≤ 12 h; onset of loss of membrane integrity (fluorescence signal), time shift with respect to luminescence (HT-29 cells [7]; HT-29, 50 µg/mL): more than 5 h; phosphatidylserine exposure (luminescent signal) on the outer side of the cell membrane (HT-29 cells [7]; HT-29, 50 µg/mL): significantly increased; also recorded: increased the level of phosphatidylserine; reduction in cell viability (HT-29 cells [8]; 10 µg/mL dose): more than 50%"
"CCCCCCOc1ccc([C@@H]2CC(=O)c3c(O)cc(OCCCCCC)cc3O2)cc1 [A2, 7,4′-di-O-hexylnaringenin]",–,>512 (>512) µg/mL,> 512 µg/mL,> 512 µg/mL,–,64 µg/mL,> 100 µg/mL,neither membrane switching of phosphatidylserine nor caspase activation was observed,> 100 µg/mL,both signals were similar to those for untreated cells,weak,> 512 µg/mL,> 512 µg/mL,> 512 µg/mL,–,–,–
"O=C1C[C@@H](c2ccc(O)cc2)Oc2cc(O)cc(O)c21 [NG, naringenin]",–,–,512 µg/mL,512 µg/mL,–,> 512 µg/mL,> 100 µg/mL,neither membrane switching of phosphatidylserine nor caspase activation was observed,> 100 µg/mL,both signals were similar to those for untreated cells,weak,> 512 µg/mL,> 512 µg/mL,> 512 µg/mL,512 µg/mL,> 512 µg/mL,–

# — publication PMC10298275, “Antiproliferative Activity and Impact on Human Gut Microbiota of New O-Alkyl Derivatives of Naringenin and Their Oximes” (International Journal of Molecular Sciences, 2023)
